We go through 38 compounds from US8748621B2, “1,3-disubstituted 4-(aryl-X-phenyl)-1H-pyridin-2-ones” (Janssen Pharmaceuticals, Inc., priority 2007, dated 2014).

Some results are limits rather than exact numbers.

One series deals with T1, human mGluR2 receptor (Homo sapiens, UniProt Q14416).
T1 construct: expressed in transfected cells; host or cells: CHO cells (membrane preparation)
In words: [35S]GTPγS binding assay (GTPγS-PAM), membranes from CHO cells transfected with human mGluR2, glutamate at EC25. Type of series: biochemical. The conditions noted are these: positive allosteric modulation in presence of glutamate at EC25 concentration; averages of duplicate values of 11-concentration response curves; error about 0.3 log-units; read-out: GTPgS - hR2 PAM pEC50 (converted). The text has this:
The compounds provided in the present invention are positive allosteric modulators of mGluR2. These compounds appear to potentiate glutamate responses by binding to an allosteric site other than the glutamate binding site. The response of mGluR2 to a concentration of glutamate is increased when compounds of Formula (I) are present. Compounds of Formula (I) are expected to have their effect substantially at mGluR2 by virtue of their ability to enhance the function of the receptor. The behaviour of positive allosteric modulators tested at mGluR2 using the [^35S]GTPγS binding assay method described below and which is suitable for the identification of such compounds, and more particularly the compounds according to Formula (I), are shown in Table 4.
The [^35S]GTPγS binding assay is a functional membrane-based assay used to study G-protein coupled receptor (GPCR) function whereby incorporation of a non-hydrolysable form of GTP, [^35S]GTPγS (guanosine 5′-triphosphate, labelled with […] ^35S), is measured. The G-protein α subunit catalyzes the exchange of guanosine 5′-diphosphate (GDP) by guanosine triphosphate (GTP) and on activation of the GPCR by an agonist, [^35S]GTPγS, becomes incorporated and cannot be cleaved to continue the exchange cycle (Harper (1998) Current Protocols in Pharmacology 2.6.1-10, John Wiley & Sons, Inc.). […] Here we describe the use of the [^35S]GTPγS binding assay using membranes from cells transfected with the human mGluR2 receptor and adapted from Schaffhauser et al ((2003) Molecular Pharmacology 4:798-810) for the detection of the positive allosteric modulation (PAM) properties of the compounds of this invention.
Cho-cells were cultured to pre-confluence and stimulated with 5 mm butyrate for 24 hours, prior to washing in PBS, and then collection by scraping in homogenisation buffer (50 mM Tris-HCl buffer, pH 7.4, 4° C.). Cell lysates were homogenized briefly (15 s) using an ultra-turrax homogenizer. The homogenate was centrifuged at 23 500×g for 10 minutes and the supernatant discarded. The pellet was resuspended in 5 mM Tris-HCl, pH 7.4 and centrifuged again (30 000×g, 20 min, 4° C.). The final pellet was resuspended in 50 mM HEPES, pH 7.4 and stored at −80° C. in appropriate aliquots before use. Protein concentration was determined by the Bradford method (Bio-Rad, USA) with bovine serum albumin as standard.
Measurement of mGluR2 positive allosteric modulatory activity of test compounds in membranes containing human mGluR2 was performed using frozen membranes that were thawed and briefly homogenised prior to pre-incubation in 96-well microplates (15 μg/assay well, 30 minutes, 30° C.) in assay buffer (50 mM HEPES pH 7.4, 100 mM NaCl, 3 mM MgCl2, 50 μM GDP, 10 μg/ml saponin,) with increasing concentrations of positive allosteric modulator (from 0.3 nM to 50 μM) and either a minimal pre-determined concentration of glutamate (PAM assay), or no added glutamate. For the PAM assay, membranes were pre-incubated with glutamate at EC25 concentration, i.e. a concentration that gives 25% of the maximal response glutamate, and is in accordance to published data (Pin et al. (1999) Eur. J. Pharmacol. 375:277˜294). After addition of [^35S]GTPγS (0.1 nM, f.c.) to achieve a total reaction volume of 200 μl, microplates were shaken briefly and further incubated to allow [^35S]GTPγS incorporation on activation (30 minutes, 30° C.). The reaction was stopped by rapid vacuum filtration over glass-fibre filter plates (Unifilter 96-well GF/B filter plates, Perkin-Elmer, Downers Grove, USA) microplate using a 96-well plate cell harvester (Filtermate, Perkin-Elmer, USA), and then by washing three times with 300 μl of ice-cold wash buffer (Na2PO4.2H20 10 mM, NaH2PO4.H20 10 mM, pH=7.4). Filters were then air-dried, and 40 μl of liquid scintillation cocktail (Microscint-O) was added to each well, and membrane-bound [^35S]GTPγS was measured in a 96-well scintillation plate reader (Top-Count, Perkin-Elmer, USA). […]
(GTPγS is a poorly hydrolysed GTP analogue; its binding reports G protein activation.)

T1 sequence (Q14416 19-872): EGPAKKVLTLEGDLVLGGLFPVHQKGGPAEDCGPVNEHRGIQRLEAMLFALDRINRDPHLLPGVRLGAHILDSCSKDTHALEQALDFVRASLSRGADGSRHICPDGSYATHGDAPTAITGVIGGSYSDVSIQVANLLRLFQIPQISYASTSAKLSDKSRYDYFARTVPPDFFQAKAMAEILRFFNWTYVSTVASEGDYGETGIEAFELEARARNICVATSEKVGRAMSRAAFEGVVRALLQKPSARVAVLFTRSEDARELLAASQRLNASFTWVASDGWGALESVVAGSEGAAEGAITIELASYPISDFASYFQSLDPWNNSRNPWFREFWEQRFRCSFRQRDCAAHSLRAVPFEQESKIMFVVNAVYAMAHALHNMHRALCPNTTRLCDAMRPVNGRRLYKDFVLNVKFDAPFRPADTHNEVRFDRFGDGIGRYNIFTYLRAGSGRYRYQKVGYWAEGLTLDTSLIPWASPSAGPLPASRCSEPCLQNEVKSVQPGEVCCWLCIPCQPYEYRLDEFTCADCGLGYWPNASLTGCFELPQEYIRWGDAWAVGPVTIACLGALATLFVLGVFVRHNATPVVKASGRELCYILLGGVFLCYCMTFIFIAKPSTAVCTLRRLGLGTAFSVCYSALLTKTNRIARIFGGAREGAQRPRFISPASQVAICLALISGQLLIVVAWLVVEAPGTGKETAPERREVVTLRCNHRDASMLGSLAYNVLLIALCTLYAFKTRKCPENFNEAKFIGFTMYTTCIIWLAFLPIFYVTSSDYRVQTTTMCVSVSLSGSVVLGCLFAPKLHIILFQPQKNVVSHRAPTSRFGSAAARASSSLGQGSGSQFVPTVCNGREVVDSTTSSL

With `CCCCn1ccc(-c2ccc(Oc3ccnc(C)c3)cc2)c(Cl)c1=O` [Compound 1, 1-Butyl-3-chloro-4-[4-(2-methylpyridin-4-yloxy)-phenyl]-1H-pyridin-2-one], at human mGluR2 receptor, the EC50 is 251 nM.

For the compound `CCCCn1ccc(-c2ccc(Oc3ccnc(C)c3)cc2F)c(Cl)c1=O` [Compound 2, 1-Butyl-3-chloro-4-[2-fluoro-4-(2-methylpyridin-4-yloxy)-phenyl]-1H-pyridin-2-one], the EC50 on human mGluR2 receptor is 282 nM.

For orientation: melting point means the temperature of the solid-liquid transition. `Cc1ccc(Oc2ccc(-c3ccn(CC4CC4)c(=O)c3Cl)cc2F)c(C)n1` [Compound 3, 3-Chloro-1-cyclopropylmethyl-4-[4-(2,6-dimethylpyridin-3-yloxy)-3-fluoro-phenyl]-1H-pyridin-2-one] showed a melting point of 143.4 °C. Also, the EC50 at human mGluR2 receptor was 182 nM.

On to `CCCCn1ccc(-c2ccc(Oc3ccc(C(=O)O)cc3)cc2)c(Cl)c1=O` [Compound 4, 4-[4-(1-Butyl-3-chloro-2-oxo-1,2-dihydro-pyridin-4-yl)-phenoxy]-benzoic acid], for which the melting point was 280.3 °C. Besides, the EC50 at human mGluR2 receptor was 138 nM.

As to `Cc1cc(Oc2ccc(-c3ccn(CC4CC4)c(=O)c3C(F)(F)F)cc2F)cc(C)n1` [Compound 5, 1-Cyclopropylmethyl-4-[4-(2,6-dimethyl-pyridin-4-yloxy)-3-fluoro-phenyl]-3-trifluoromethyl-1H-pyridin-2-one], the melting point was determined as 161.8 °C. Besides, the EC50 on human mGluR2 receptor is 75.9 nM.

With `Cc1cc(Oc2ccc(-c3ccn(CCC(C)C)c(=O)c3Cl)cc2)ccn1` [Compound 6], the EC50 at human mGluR2 receptor is 170 nM.

For `Cc1cc(Oc2ccc(-c3ccn(CCC4CC4)c(=O)c3Cl)cc2)ccn1` [Compound 7], the EC50 on human mGluR2 receptor is 174 nM.

For `CCCCn1ccc(-c2ccc(Oc3ccnc(C)c3)c(F)c2)c(Cl)c1=O` [Compound 8], the EC50 on human mGluR2 receptor was 174 nM.

With `CCCCn1ccc(-c2ccc(Oc3cc(C)nc(C)c3)c(F)c2)c(Cl)c1=O` [Compound 9], the EC50 on human mGluR2 receptor is 234 nM.

With `CCCCn1ccc(-c2ccc(Oc3cc(C)nc(C)c3)cc2F)c(Cl)c1=O` [Compound 10], the EC50 at human mGluR2 receptor was 200 nM.

For `CCCCn1ccc(-c2ccc(Oc3ccnc(C)c3C)cc2F)c(Cl)c1=O` [Compound 11], the EC50 at human mGluR2 receptor was 67.6 nM.

For `CCCCn1ccc(-c2ccc(Oc3ccnc(C)c3C)c(F)c2)c(Cl)c1=O` [Compound 12], the EC50 at human mGluR2 receptor is 129 nM.

Consider `Cc1cc(Oc2ccc(-c3ccn(CC4CC4)c(=O)c3Cl)cc2)ccn1` [Compound 13], for which the EC50 on human mGluR2 receptor is 513 nM.

As for `Cc1ccc(Oc2ccc(-c3ccn(CC4CC4)c(=O)c3Cl)cc2)c(C)n1` [Compound 14], the melting point came to 151.8 °C. The EC50 on human mGluR2 receptor was 138 nM.

For the compound `CCCCn1ccc(-c2ccc(Oc3cccnc3C)c(Cl)c2)c(Cl)c1=O` [Compound 15], the EC50 at human mGluR2 receptor is 60.3 nM.

In the case of `CCCCn1ccc(-c2ccc(Oc3ccc(C)nc3C)cc2)c(Cl)c1=O` [Compound 16], at human mGluR2 receptor, the EC50 is 67.6 nM.

As for `Cc1cc(Oc2ccc(-c3ccn(CC4CC4)c(=O)c3Cl)cc2Cl)ccn1` [Compound 17], the melting point worked out at 120.8 °C. In addition, the EC50 on human mGluR2 receptor was 117 nM.

Consider `CCCCn1ccc(-c2ccc(Oc3ccnc(C)c3)c(Cl)c2)c(Cl)c1=O` [Compound 18], for which, on human mGluR2 receptor, the EC50 is 100 nM.

In turn, `Cc1cc(Oc2ccc(-c3ccn(CCC(C)C)c(=O)c3Cl)cc2Cl)ccn1` [Compound 19] displayed a melting point of 103.8 °C. In addition, the EC50 at human mGluR2 receptor was 67.6 nM.

In turn, `Cc1ccc(Oc2ccc(-c3ccn(CC4CC4)c(=O)c3Cl)cc2Cl)cn1` [Compound 20] yielded a melting point of 111.8 °C. At human mGluR2 receptor, the EC50 was 91.2 nM.

`Cc1ccc(Oc2ccc(-c3ccn(CCC(C)C)c(=O)c3Cl)cc2Cl)cn1` [Compound 21] returned a melting point of 96.1 °C. Besides, the EC50 on human mGluR2 receptor was 46.8 nM.

Consider `CCCCn1ccc(-c2ccc(Oc3ccc(C)nc3)c(Cl)c2)c(Cl)c1=O` [Compound 22], for which the melting point turned out to be 79.7 °C. Besides, the EC50 at human mGluR2 receptor is 46.8 nM.

With `Cc1ncccc1Oc1ccc(-c2ccn(CC3CC3)c(=O)c2Cl)cc1Cl` [Compound 23], at human mGluR2 receptor, the EC50 was 126 nM.

The compound `Cc1ncccc1Oc1ccc(-c2ccn(CC3CC3)c(=O)c2Cl)cc1` [Compound 24] showed a melting point of 126.2 °C. In addition, the EC50 at human mGluR2 receptor is 437 nM.

Consider `CCCCn1ccc(-c2ccc(Oc3cccnc3C)cc2)c(Cl)c1=O` [Compound 25], for which, at human mGluR2 receptor, the EC50 was 224 nM.

Take `Cc1cc(Oc2ccc(-c3ccn(CCC4CC4)c(=O)c3Cl)c(F)c2)ccn1` [Compound 26]: at human mGluR2 receptor, the EC50 was 155 nM.

`Cc1cc(Oc2ccc(-c3ccn(CC4CC4)c(=O)c3Cl)cc2F)ccn1` [Compound 27] showed a melting point of 176 °C. At human mGluR2 receptor, the EC50 was 355 nM.

`Cc1cc(Oc2ccc(-c3ccn(CC4CC4)c(=O)c3Cl)c(F)c2)ccn1` [Compound 28] gave a melting point of 131.8 °C. Moreover, the EC50 at human mGluR2 receptor is 363 nM.

On to `CCCCn1ccc(-c2ccc(Oc3cccnc3C)cc2F)c(Cl)c1=O` [Compound 29], for which the melting point turned out to be 108.4 °C. For the same compound, on human mGluR2 receptor, the EC50 is more than 10000 nM.

Consider `CCCCn1ccc(-c2ccc(Oc3ccc(C)nc3C)c(F)c2)c(Cl)c1=O` [Compound 30], for which the EC50 at human mGluR2 receptor is 46.8 nM.

Compound `Cc1cc(Oc2ccc(-c3ccn(CC4CC4)c(=O)c3Cl)cc2F)cc(C)n1` [Compound 31] yielded a melting point of 161.6 °C. For the same compound, on human mGluR2 receptor, the EC50 was 288 nM.

Compound `Cc1cc(Oc2ccc(-c3ccn(CC4CC4)c(=O)c3Cl)c(F)c2)cc(C)n1` [Compound 32] displayed a melting point of 148.6 °C. Further, the EC50 at human mGluR2 receptor was 372 nM.

Regarding `Cc1ncccc1Oc1ccc(-c2ccn(CC3CC3)c(=O)c2Cl)cc1F` [Compound 33], the EC50 at human mGluR2 receptor was 617 nM.

For `Cc1ncccc1Oc1ccc(-c2ccn(CC3CC3)c(=O)c2Cl)c(F)c1` [Compound 34], the melting point stood at 120.9 °C. Also, the EC50 on human mGluR2 receptor is more than 10000 nM.

For `CCCCn1ccc(-c2ccc(Oc3ccc(C)nc3C)cc2F)c(Cl)c1=O` [Compound 35], the EC50 at human mGluR2 receptor was more than 10000 nM.

As for `Cc1cc(C)nc(Oc2ccc(-c3ccn(CC4CC4)c(=O)c3Cl)c(F)c2)c1` [Compound 36], the EC50 on human mGluR2 receptor is 891 nM.

As to `CCCCn1ccc(-c2ccc(Oc3ccc(C(C)(C)O)cc3)cc2)c(Cl)c1=O` [Compound 37], the EC50 on human mGluR2 receptor was 39.8 nM.

In turn, `Cc1cc(Oc2ccc(-c3ccn(CC4CC4)c(=O)c3C(F)(F)F)cc2F)ccn1` [Compound 38] had a melting point of 203.9 °C. Further, on human mGluR2 receptor, the EC50 is 102 nM.
